Experimental data from ChEMBL document CHEMBL4813957, “Antitubercular properties of thiazolidin-4-ones - A review” (Eur J Med Chem, 2021).
≈ marks a conversion by molar mass, not a printed value.

Tested on: Mycobacterium tuberculosis
Experiment: Antimycobacterial activity against Mycobacterium tuberculosis H37Rv by microplate alamar blue assay
Assay type: functional
Conditions: not given

SMILES | MIC
CN[C@@H]1[C@H](O[C@H]2[C@H](O[C@H]3[C@H](O)[C@@H](O)[C@H](N=C(N)N)[C@@H](O)[C@@H]3N=C(N)N)O[C@@H](C)[C@]2(O)C=O)O[C@@H](CO)[C@H](O)[C@H]1O [STREPTOMYCIN] | 6.25 µg/mL (≈ 10.7 µM)
O=C(O)c1cn(C2CC2)c2cc(N3CCNCC3)c(F)cc2c1=O [CIPROFLOXACIN] | 3.12 µg/mL (≈ 9.42 µM)

Tested on: Mycobacterium tuberculosis
Experiment: Antimycobacterial activity against Mycobacterium tuberculosis H37Ra
Assay type: functional
Conditions: not given

SMILES | MIC
O=C1NC(=S)S/C1=C\c1ccc(/N=N/c2ccccc2)cc1O | 95 µg/mL (≈ 278 µM)
Cc1ccccc1/N=N/c1ccc(/C=C2\SC(=S)NC2=O)c(O)c1 | 95 µg/mL (≈ 267 µM)
O=C1NC(=S)S/C1=C\c1ccccc1O | 95 µg/mL (≈ 400 µM)
COc1ccc(/N=N/c2ccc(/C=C3\SC(=S)NC3=O)c(O)c2)cc1 | 95 µg/mL (≈ 256 µM)
CCOC(=O)C(C(C)C)N1C(=O)C(C)SC1c1cccc(OC)c1O (configuration not stated) | 25 µg/mL (≈ 68 µM)
O=C1NC(=S)S/C1=C\c1c(O)ccc2ccccc12 | 95 µg/mL (≈ 331 µM)
Cc1ccc(/N=N/c2ccc(/C=C3\SC(=S)NC3=O)c(O)c2)cc1 | 95 µg/mL (≈ 267 µM)
CCOC(=O)C(C(C)C)N1C(=O)C(C)SC1c1ccc2c(c1)c1ccccc1n2CC (configuration not stated) | 25 µg/mL (≈ 57 µM)

Tested on: Mycobacterium tuberculosis
Experiment: Antimycobacterial activity against Mycobacterium tuberculosis H37Rv by Lowenstein-Jensen method relative to control
Assay type: functional
Conditions: not given

SMILES | MIC
O=C(NCCCNc1ncc([N+](=O)[O-])s1)N1C(=O)/C(=C/c2cccc(Br)c2)SC1c1cccc(Br)c1 (configuration not stated) | 2.75 µg/mL (≈ 4.21 µM)
O=C(NCCCNc1ncc([N+](=O)[O-])s1)N1C(=O)/C(=C/c2ccccc2Cl)SC1c1ccccc1Cl (configuration not stated) | 2.5 µg/mL (≈ 4.43 µM)
O=C(NCCCNc1ncc([N+](=O)[O-])s1)N1C(=O)/C(=C/c2cccc(Cl)c2)SC1c1cccc(Cl)c1 (configuration not stated) | 2.75 µg/mL (≈ 4.87 µM)
O=C(NCCCNc1ncc([N+](=O)[O-])s1)N1C(=O)/C(=C/c2ccc([N+](=O)[O-])cc2)SC1c1ccc([N+](=O)[O-])cc1 (configuration not stated) | 2.5 µg/mL (≈ 4.27 µM)
O=C(NCCCNc1ncc([N+](=O)[O-])s1)N1C(=O)/C(=C/c2ccccc2Br)SC1c1ccccc1Br (configuration not stated) | 6.25 µg/mL (≈ 9.57 µM)
O=C(NCCCNc1ncc([N+](=O)[O-])s1)N1C(=O)/C(=C/c2ccccc2[N+](=O)[O-])SC1c1ccccc1[N+](=O)[O-] (configuration not stated) | 2.75 µg/mL (≈ 4.7 µM)
O=C(NCCCNc1ncc([N+](=O)[O-])s1)N1C(=O)/C(=C/c2ccc(Cl)cc2)SC1c1ccc(Cl)cc1 (configuration not stated) | 2.5 µg/mL (≈ 4.43 µM)
O=C(NCCCNc1ncc([N+](=O)[O-])s1)N1C(=O)/C(=C/c2ccc(Br)cc2)SC1c1ccc(Br)cc1 (configuration not stated) | 2.75 µg/mL (≈ 4.21 µM)
O=C(NCCCNc1ncc([N+](=O)[O-])s1)N1C(=O)/C(=C/c2ccccc2)SC1c1ccccc1 (configuration not stated) | 12.5 µg/mL (≈ 25.2 µM)
O=C(NCCCNc1ncc([N+](=O)[O-])s1)N1C(=O)/C(=C/c2cccc([N+](=O)[O-])c2)SC1c1cccc([N+](=O)[O-])c1 (configuration not stated) | 2.5 µg/mL (≈ 4.27 µM)

Tested on: Mycobacterium tuberculosis
Experiment: Antimycobacterial activity against Mycobacterium tuberculosis H37Rv
Assay type: functional
Conditions: not given

SMILES | MIC
COc1cc(-c2cc(-c3ccc(Cl)cc3)nc(NC(=O)NN3C(=O)CSC3c3ccccc3[N+](=O)[O-])n2)cc(OC)c1OC (configuration not stated) | 100 µg/mL (≈ 157 µM)
COc1cc(-c2cc(-c3ccc(Cl)cc3)nc(NC(=O)NN3C(=O)CSC3c3ccccc3O)n2)cc(OC)c1OC (configuration not stated) | 100 µg/mL (≈ 164 µM)
O=C1/C(=C/c2ccccc2Cl)SC(c2ccccc2Cl)N1NCCNc1ncc([N+](=O)[O-])s1 (configuration not stated) | 25 µg/mL (≈ 47.9 µM)
O=C1/C(=C/c2ccc([N+](=O)[O-])cc2)SC(c2ccc([N+](=O)[O-])cc2)N1NCCNc1ncc([N+](=O)[O-])s1 (configuration not stated) | 25 µg/mL (≈ 46 µM)
COc1ccc(C2SCC(=O)N2NC(=O)Nc2nc(-c3ccc(Cl)cc3)cc(-c3cc(OC)c(OC)c(OC)c3)n2)cc1 (configuration not stated) | 100 µg/mL (≈ 161 µM)
C/C(=N\N1C(=O)CSC1c1ccc(O)cc1)c1oc2ccc(Cl)cc2c1C (configuration not stated) | 25 µg/mL (≈ 62.4 µM)

Tested on: Mycobacterium tuberculosis
Experiment: Antimycobacterial activity against Mycobacterium tuberculosis H37Rv incubated for 5 days by microplate alamar blue assay
Assay type: functional
Conditions: 120 h, time 5 day

SMILES | MIC
NC(=O)c1cnccn1 [PYRAZINAMIDE] | 3.12 µg/mL (≈ 25.3 µM)
CN[C@@H]1[C@H](O[C@H]2[C@H](O[C@H]3[C@H](O)[C@@H](O)[C@H](N=C(N)N)[C@@H](O)[C@@H]3N=C(N)N)O[C@@H](C)[C@]2(O)C=O)O[C@@H](CO)[C@H](O)[C@H]1O [STREPTOMYCIN] | 6.25 µg/mL (≈ 10.7 µM)
O=C(O)c1cn(C2CC2)c2cc(N3CCNCC3)c(F)cc2c1=O [CIPROFLOXACIN] | 3.12 µg/mL (≈ 9.42 µM)

Tested on: Mycobacterium tuberculosis
Experiment: Antimycobacterial activity against Mycobacterium tuberculosis H37Rv assessed as growth inhibition at 6.25 ug/ml by microplate alamar blue assay relative to control
Assay type: functional
Conditions: read-out: GI

SMILES | inhibition of growth at 6.25 µg/mL
N#Cc1ccc(C2SCC(=O)N2NC(=O)C(O)(c2ccccc2)c2ccccc2)cc1 (configuration not stated) | 98%
CC1SC(c2ccc(C#N)cc2)N(NC(=O)C(O)(c2ccccc2)c2ccccc2)C1=O (configuration not stated) | 99%
CC1SC(c2ccc(Cl)cc2)N(NC(=O)C(O)(c2ccccc2)c2ccccc2)C1=O (configuration not stated) | 99%
O=C1CSC(c2ccc(Cl)cc2)N1NC(=O)C(O)(c1ccccc1)c1ccccc1 (configuration not stated) | 99%
CC1SC(c2ccc(OCc3ccccc3)cc2)N(NC(=O)C(O)(c2ccccc2)c2ccccc2)C1=O (configuration not stated) | 98%
O=C1CSC(c2ccc(OCc3ccccc3)cc2)N1NC(=O)C(O)(c1ccccc1)c1ccccc1 (configuration not stated) | 98%

Tested on: Mycobacterium tuberculosis
Experiment: Antimycobacterial activity against Mycobacterium tuberculosis H37Rv ATCC27294 incubated for 7 days by microplate alamar blue assay
Assay type: functional
Conditions: H37Rv ATCC 27294, 168 h, time 7 day

SMILES | MIC
O=C(NN1C(=O)CSC1c1ccccc1)c1cc(O)c(O)c(O)c1 (configuration not stated) | 0.79 µg/mL (≈ 2.28 µM)
O=C(NN1C(=O)CSC1c1ccc(O)cc1)c1cc(O)c(O)c(O)c1 (configuration not stated) | 0.79 µg/mL (≈ 2.18 µM)
O=C(NN1C(=O)CSC1c1cccc(O)c1)c1cc(O)c(O)c(O)c1 (configuration not stated) | 0.79 µg/mL (≈ 2.18 µM)
O=C(NN1C(=O)CSC1c1ccccc1Cl)c1cc(O)c(O)c(O)c1 (configuration not stated) | 0.79 µg/mL (≈ 2.07 µM)
O=C(NN1C(=O)CSC1c1ccccc1O)c1cc(O)c(O)c(O)c1 (configuration not stated) | 0.79 µg/mL (≈ 2.18 µM)
COc1cccc(C2SCC(=O)N2NC(=O)c2cc(O)c(O)c(O)c2)c1O (configuration not stated) | 0.79 µg/mL (≈ 2.01 µM)

Tested on: Mycolicibacterium smegmatis
Experiment: Antimycobacterial activity against Mycobacterium smegmatis ATCC 35797 incubated for 48 hrs by agar dilution method
Assay type: functional
Conditions: not given

SMILES | MIC
CCCCCCCCCCC1SCC(=O)N1NC(=O)c1ccncc1 (configuration not stated) | 25 µg/mL (≈ 68.8 µM)

Tested on: Mycobacterium tuberculosis
Experiment: Antimycobacterial activity against Mycobacterium tuberculosis H37Rv ATCC 27294 incubated for 5 days by microplate alamar blue assay
Assay type: functional
Conditions: H37Rv ATCC 27294, 120 h, time 5 day

SMILES | MIC
O=C(NN1C(=O)CSC1c1ccco1)c1ccncc1 (configuration not stated) | 1.25 µg/mL (≈ 4.32 µM)
COc1cc(C2SCC(=O)N2NC(=O)c2ccncc2)ccc1O (configuration not stated) | 0.31 µg/mL (≈ 0.898 µM)

Tested on: Mycobacterium tuberculosis
Experiment: Antimycobacterial activity against Mycobacterium tuberculosis H37Rv incubated for 7 days by microplate alamar blue assay
Assay type: functional
Conditions: 168 h, time 7 day

SMILES | MIC
O=C(O)c1cn(C2CC2)c2cc(N3CCNCC3)c(F)cc2c1=O [CIPROFLOXACIN] | 3.12 µg/mL (≈ 9.42 µM)

Tested on: Mycobacterium tuberculosis
Experiment: Antimycobacterial activity against Mycobacterium tuberculosis H37Rv ATCC […] by microplate alamar blue assay
Assay type: functional
Conditions: 168 h, time 7 day

SMILES | MIC
NC(=O)c1cnccn1 [PYRAZINAMIDE] | 3.12 µg/mL (≈ 25.3 µM)
CN[C@@H]1[C@H](O[C@H]2[C@H](O[C@H]3[C@H](O)[C@@H](O)[C@H](N=C(N)N)[C@@H](O)[C@@H]3N=C(N)N)O[C@@H](C)[C@]2(O)C=O)O[C@@H](CO)[C@H](O)[C@H]1O [STREPTOMYCIN] | 6.25 µg/mL (≈ 10.7 µM)
